Data as given in US20130172244A1, “SUBCUTANEOUS THERAPEUTIC USE OF DPP-4 INHIBITOR” (priority 2011, published 2013).
Ends that are not written are not given here.

Assays:
[1] = system: rats fed a high-fat diet (diet induced obesity); assay: Chronic treatment in non-diabetic model of diet induced obesity: body weight, total body fat, liver fat, intramyocellular fat (MRS); type: in vivo; details: 6 weeks, linagliptin 10 mg/kg, sibutramine 5 mg/kg; for Body weight % baseli. / Intra-myocellular fat % baseli. / Liver fat % baseli. / Total body fat % baseli.: versus baseline; for Body weight % contr. / Intra-myocellular fat % contr. / Liver fat % contr. / Total body fat % contr.: versus control; for Intra-myocellular fat % baseli. / Liver fat % baseli. / Total body fat % baseli. / Intra-myocellular fat % contr. / Liver fat % contr. / Total body fat % contr.: MRS
Protocol: Magnetic resonance spectroscopy (MRS) analysis of total body fat, muscle fat, and liver fat is performed before treatment and at the end of the study.

[2] = system: DIO male Sprague-Dawley rats; assay: Chronic s.c. dosing, body weight and food intake in diet-induced obese (DIO) rats; type: in vivo; details: DIO rat, s.c. twice daily
Protocol: (§1) However, it is not known whether DPP-IV inhibition in conjunction with glucagon-like peptide (GLP)-1 administration would influence body weight.
(§2) Materials and methods: Normal-weight and DIO male Sprague-Dawley rats were used for acute and chronic dosing experiments, respectively. All rats were stratified to treatment groups according to individual body weight and whole-body fat mass. Linagliptin+GLP-1 combination treatment was evaluated in both acute and chronic treatment settings and compared with monotherapy and vehicle controls. […] For comparison, DIO rats were exposed to 28 days of liraglutide monotherapy. All drugs were administered twice daily subcutaneously (s.c.). […] In comparison, chronic liraglutide (0.2 mg/kg) treatment evoked a long-lasting hypophagic response with a weight loss of −10.8±0.5% and 12.2±0.6% at day 14 and 28, respectively.

[3] = system: normal-weight male Sprague-Dawley rats; assay: Acute s.c. dosing, nocturnal food intake in normal-weight rats; type: in vivo; details: linagliptin 0.1-0.5 mg/kg, GLP-1 0.2-0.4 mg/kg
Protocol: as §1, §2

[4] = Safety and tolerability in people with type 2 diabetes
[5] = clinical; details: human, urine, po
[6] = 2 h postprandial blood glucose excursions in patients with type 2 diabetes; type: in vivo, human; details: Day 1; oral doses ≧2.5 mg
[7] = Pharmacokinetics of BI 1356 in patients with type 2 diabetes, multiple oral doses once daily for 12 days
[8] = system: RIP-B7.1 tg mice; assay: Diabetes development in RIP-B7.1 transgenic mice after proinsulin/insulin A-chain plasmid vaccination; type: in vivo
Excerpt: Dipeptidyl peptidase (DPP)-4 inhibitors block incretin degradation by DPP-4. […] As in humans, diabetes development in this model critically depends on activated CD8 T cells. Diabetes develops in RIP-B7.1 tg mice after a single intramuscular (i.m.) vaccination (vac) of proinsulin (PI) plasmid DNA.
Vac A: Diabetes is induced using a PI-encoding plasmid resulting in an aggressive insulitis. Vac B: vac with insulin A-chain encoding plasmid results in a delayed diabetes development compared to vac A. With vac A (n=20 tg mice), diabetes incidence is 80% 5 weeks after vac, whereas vac B (n=34) results in 79% incidence after 12 wks in placebotreated mice.

[9] = system: non-obese-diabetic (NOD) mice; assay: Onset of diabetes and beta-cell mass in non-obese-diabetic (NOD) mice; type: in vivo; details: female NOD mice
Excerpt: Though reduced pancreatic T-cell migration and altered cytokine production is considered important players for the onset of insulinitis the exact mechanism and effects on the pancreatic cell pool is still incompletely understood.
Bi-weekly plasma samples are obtained to determine onset of diabetes (BG>11 mmol/l).

[10] = 2.5 mg oral once daily, steady state (Day 12), gMean (gCV)
[11] = 10 mg oral once daily, steady state (Day 12), gMean (gCV)

CC(C)CC(N(C)C)C1(c2ccc(Cl)cc2)CCC1 (stereo not drawn) [Sibutramine, reference compound]
Body weight % baseli. [1]: +1% | Body weight % contr. [1]: −12% | Intra-myocellular fat % baseli. [1]: −34% | Liver fat % baseli. [1]: −29% | Total body fat % baseli. [1]: −0.4% | Intra-myocellular fat % baseli. ([1]; listed as sibutramine): −34% | Intra-myocellular fat % contr. [1]: −55% | Liver fat % contr. [1]: −30% | Total body fat % contr. [1]: −12% | Liver fat % contr. ([1]; listed as sibutramine): −30% | Total body fat % contr. ([1]; listed as sibutramine): −12%

CC#CCn1c(N2CCC[C@@H](N)C2)nc2c1c(=O)n(Cc1nc(C)c3ccccc3n1)c(=O)n2C [linagliptin]
effect of 14 days of monotherapy [2]: no effect | effect on nocturnal food intake [3]: no effect | safety and tolerability [4]: placebo-like safety and tolerability | CL renal [5]: 14 to 70 mL/min | CL renal ([5]; 5 mg): ~70 mL/min | decrease in 2 h postprandial blood glucose excursions [6]: ≥ 80% | feT,ss ([7]; 1 mg oral once daily, steady state (Day 12), gMean (gCV)): 3.34 (38.3) % | fe0-24 ([7]; 2.5 mg oral once daily for 12 days, gMean (gCV)): 0.139 (51.2) % | AUCT,ss [7, 10]: 117 (16.3) nmol · h/L | feT,ss [7, 10]: 3.06 (45.1) % | fe0-24 ([7]; 5 mg oral once daily for 12 days, gMean (gCV)): 0.453 (125) % | feT,ss ([7]; 5 mg oral once daily, steady state (Day 12), gMean (gCV)): 6.27 (42.2) % | fe0-24 ([7]; 10 mg oral once daily for 12 days, gMean (gCV)): 0.919 (115) % | T1/2,ss [7, 11]: 130 (11.7) h | feT,ss [7, 11]: 3.22 (34.2) % | form and path of excretion ([7]; human, in vivo): primarily excreted unchanged via the bile | mean accumulation ratio RA,AUC ([7]; oral doses above 1 mg once daily): ≤ 1.4 | fraction excreted via the kidney ([7]; therapeutic oral dose levels): < 7 % of the administered oral dose | main route of excretion ([7]; therapeutic oral dose levels): mainly excreted via the liver | Serum levels of the regulatory cytokine IL-10 ([8]; linagliptin 3 mg/kg/day oral): significantly upregulated | islet insulin content after diabetes onset ([8]; linagliptin 3 mg/kg/day oral): partially preserved | number of islet antigen-specific CD8 T cells expressing IFN-γ (FACS and ELISPOT) ([8]; linagliptin 3 mg/kg/day oral versus placebo): equal number | diabetes incidence ([8]; vac A (PI-encoding plasmid), after wk 8 of follow-up, linagliptin 3 mg/kg/day oral, placebo 80% at 5 wks): 80% | diabetes incidence ([8]; vac B (insulin A-chain plasmid), during 14 wks follow up, linagliptin 3 mg/kg/day oral, control 92% wk 14): ≤ 62% | incidence of diabetes (BG>11 mmol/l) at the end of the study period ([9]; 60 days, diet with 0.083 g linagliptin/kg chow (3-10 mg/kg p.o.), control 18 of 30): 9 out of 30 | beta cell mass (insulin immunoreactivity, stereology) ([9]; 60 days, linagliptin in diet, vehicle 0.18±0.03): 0.48±0.09 mg | total islet mass ([9]; 60 days, linagliptin in diet, vehicle 0.40±0.04): 0.70 ± 0.09 mg | peri-islet infiltrating lymphocytes ([9]; 60 days, linagliptin in diet, vehicle 1.06±0.15): 0.79 ± 0.12 mg | active plasma GLP-1 at termination ([9]; versus control): higher | Body weight % baseli. [1]: +12% | Body weight % contr. [1]: −3% | Body weight % contr. ([1]; listed as Linagliptin): −3% | Intra-myocellular fat % baseli. [1]: −24% | Liver fat % baseli. [1]: −30% | Total body fat % baseli. [1]: +5% | Intra-myocellular fat % baseli. ([1]; listed as Linagliptin): −24% | Intra-myocellular fat % contr. [1]: −36% | Liver fat % contr. [1]: −39% | Total body fat % contr. [1]: −5% | Liver fat % contr. ([1]; listed as Linagliptin): −39% | Total body fat % contr. ([1]; listed as Linagliptin): −5%

GLP-1: native glucagon-like peptide (GLP)-1 (7-36) (HAEGTFTSDVSSYLEGQAAKEFIAWLVKGR; ends and bridges not checked; UniProt P01275 98-127, looked up)
effect of 14 days of monotherapy [2]: no effect | effect on nocturnal food intake [3]: rapid-onset suppression of food intake
